Tests used:
Format in all cases: in vivo
[1] = test system: ryegrass, Italian (Italian ryegrass, Lolium multiflorum); experiment: Test A preemergence
In short: (§1)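 Greenhouse, ~10 d after spray; visual injury vs untreated controls, 0 = no effect, 100 = complete control. Preemergence: directed soil spray over planted seeds. Postemergence: plants 2–10 cm, 1–2 leaf stage. Loam/sand blend. Compound in non-phytotoxic solvent with surfactant.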

[2] = test system: ragweed (common ragweed, Ambrosia elatior); experiment: Test A preemergence
In short: as §1

[3] = test system: giant foxtail (Setaria faberii); experiment: Test A preemergence
In short: as §1

[4] = test system: pigweed (Amaranthus retroflexus); experiment: Test A preemergence
[5] = test system: barnyardgrass (Echinochloa crus-galli); experiment: Test A preemergence
In short: as §1

Kochia (Kochia scoparia) [6] = experiment: Test A preemergence
In short: as §1

[7] = test system: ryegrass, Italian (Italian ryegrass, Lolium multiflorum); experiment: Test A postemergence; details: postemergence
In short: as §1

[8] = test system: Galium (catchweed bedstraw, Galium aparine); experiment: Test A postemergence; details: postemergence
In short: as §1

[9] = test system: ragweed (common ragweed, Ambrosia elatior); experiment: Test A postemergence; details: postemergence
In short: as §1

[10] = test system: giant foxtail (Setaria faberii); experiment: Test A postemergence; details: postemergence
In short: as §1

corn (Zea mays) = experiment: Test A postemergence; details: postemergence
In short: as §1

[11] = test system: wheat (Triticum aestivum); experiment: Test A postemergence; details: postemergence
In short: as §1

[12] = test system: pigweed (Amaranthus retroflexus); experiment: Test A postemergence; details: postemergence
In short: as §1

[13] = test system: barnyardgrass (Echinochloa crus-galli); experiment: Test A postemergence; details: postemergence
In short: as §1

[14] = test system: blackgrass (Alopecurus myosuroides); experiment: Test A postemergence; details: postemergence
In short: as §1

Kochia (Kochia scoparia) [15] = experiment: Test A postemergence; details: postemergence
In short: as §1

[16] = test system: sedge, umbrella (small-flower umbrella sedge, Cyperus difformis); experiment: Test B flooded paddy test; details: Flood, 250 g ai/ha; 0 to 100 scale where 0 is no effect and 100 is complete control; 13 to 15 d
In short: (§2)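 Evaluation by eye, against controls, occurred 13–15 d post-treatment in a greenhouse, using a 0 (no effect) to 100 (complete control) scale. Application was into the paddy water, 3 cm deep over the soil, on 2-leaf plants.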

[17] = test system: ducksalad (Heteranthera limosa); experiment: Test B flooded paddy test; details: Flood, 250 g ai/ha; 0 to 100 scale where 0 is no effect and 100 is complete control; 13 to 15 d
In short: as §2

[18] = test system: barnyardgrass (Echinochloa crus-galli); experiment: Test B flooded paddy test; details: Flood, 250 g ai/ha; 0 to 100 scale where 0 is no effect and 100 is complete control; 13 to 15 d
In short: as §2

rice (Oryra sativa) = experiment: Test B flooded paddy test; details: Flood, 250 g ai/ha; 0 to 100 scale where 0 is no effect and 100 is complete control; 13 to 15 d
In short: as §2

[19] = 125 g ai/ha, preemergence, 0 to 100 scale (0 no effect, 100 complete control)
[20] = Preemergence, 500 g ai/ha, visual injury approx. 10 d
[21] = 125 g ai/ha, visual injury rating on 0 to 100 scale (0 no effect, 100 complete control), approx. 10 d
[22] = 500 g ai/ha, 0 to 100 scale, 0 no effect, 100 complete control

For `CN1CC(c2ccc(F)cc2)C(C(=O)Nc2ccccc2F)C1=O` (stereo not drawn) [Compound 437], the “Plant response rating, Ryegrass, Italian” value [1, 19] was 0, the “Ryegrass, Italian plant response rating (0 to 100 scale, 0 is no effect, 100 is complete control)” value [1, 20] was 50 and the “Plant response rating, Ragweed” value [2, 19] was 0. For the same compound, the “Ragweed plant response rating (0 to 100 scale, 0 is no effect, 100 is complete control)” value [2, 20] was 60, the “Plant response rating, Foxtail, Giant” value [3, 19] was 90 and the “Foxtail, Giant plant response rating (0 to 100 scale, 0 is no effect, 100 is complete control)” value [3, 20] was 100. For the same compound, the “Plant response rating, Pigweed” value [4, 19] was 20, the “Pigweed plant response rating (0 to 100 scale, 0 is no effect, 100 is complete control)” value [4, 20] was 80 and the “Plant response rating, Barnyardgrass” value [5, 19] was 90. The “Barnyardgrass plant response rating (0 to 100 scale, 0 is no effect, 100 is complete control)” value [5, 20] was 90, the “Plant response rating, Kochia” value (Kochia (Kochia scoparia) [6]; [19]) was 60 and the “Kochia plant response rating (0 to 100 scale, 0 is no effect, 100 is complete control)” value (Kochia (Kochia scoparia) [6]; [20]) was 70. The “Ryegrass, Italian plant response rating” value [7, 21] was 0, the “Plant response rating, Ryegrass, Italian” value [7, 22] was 20 and the “Galium plant response rating” value [8, 21] was 30. For the same compound, the “Plant response rating, Galium” value [8, 22] was 50, the “Ragweed plant response rating” value [9, 21] was 0 and the “Plant response rating, Ragweed” value [9, 22] was 0. For the same compound, the “Foxtail, Giant plant response rating” value [10, 21] was 90, the “Plant response rating, Foxtail, Giant” value [10, 22] was 90 and the “Corn plant response rating” value (corn (Zea mays); [21]) was 0. For the same compound, the “Plant response rating, Corn” value (corn (Zea mays); [22]) was 20, the “Wheat plant response rating” value [11, 21] was 0 and the “Plant response rating, Wheat” value [11, 22] was 40. The “Pigweed plant response rating” value [12, 21] was 0, the “Plant response rating, Pigweed” value [12, 22] was 20 and the “Barnyardgrass plant response rating” value [13, 21] was 90. For the same compound, the “Plant response rating, Barnyardgrass” value [13, 22] was 90, the “Blackgrass plant response rating” value [14, 21] was 0 and the “Plant response rating, Blackgrass” value [14, 22] was 30. For the same compound, the “Kochia plant response rating” value (Kochia (Kochia scoparia) [15]; [21]) was 20, the “Plant response rating, Kochia” value (Kochia (Kochia scoparia) [15]; [22]) was 30 and the “Plant response rating, Sedge, Umbrella” value [16] was 0. For the same compound, the “Plant response rating, Ducksalad” value [17] was 100, the “Plant response rating, Barnyardgrass” value [18] was 65 and the “Plant response rating, Rice” value (rice (Oryra sativa)) was 0.

From patent publication US12077503B2, “Substituted cyclic amides and their use as herbicides” (FMC CORPORATION, priority 2015, dated 2024)
